Data: US7279491B2 (Janssen Pharmaceutica N.V., priority 2002, dated 2007)

Each compound was assayed against T1, human histamine H3 receptor (Homo sapiens, UniProt Q9Y5N1) (assay: {3H}-N-methylhistamine binding to membranes of histamine H3 receptor-expressing SK-N-MC cells). Settings: 0.8 nM {3H}-N-methylhistamine, 45 min at 25° C., Ki=(IC50)/(1+({L}/(Kd)), Kd 800 pM).
T1 construct: One microgram of supercoiled H3 receptor cDNA was added to the cells and mixed; expressed in transfected cells; membranes
Description: Transfection of Cells with Human Histamine Receptor
A 10 cm tissue culture dish with a confluent monolayer of SK-N-MC cells was split two days prior to transfection. Using sterile technique the media was removed and the cells were detached from the dish by the addition of trypsin. One fifth of the cells were then placed onto a new 10 cm dish. Cells were grown in a 37° C. incubator with 5% CO2 in Minimal Essential Media Eagle with 10% Fetal Bovine Serum. After two days cells were approximately 80% confluent. These were removed from the dish with trypsin and pelleted in a clinical centrifuge. The pellet was then re-suspended in 400 μL complete media and transferred to an electroporation cuvette with a 0.4 cm gap between the electrodes. One microgram of supercoiled H3 receptor cDNA was added to the cells and mixed. The voltage for the electroporation was set at 0.25 kV, the capacitance was set at 960 μF. After electroporation the cells were diluted into 10 mL complete media and plated onto four 10 cm dishes. Because of the variability in the efficiency of electroporation, four different concentrations of cells were plated. The ratios used were; 1:20, 1:10, 1:5, with the remainder of the cells being added to the fourth dish. The cells were allowed to recover for 24 h before adding the selection media (complete media with 600 μg/mL G418). After 10 days dishes were analyzed for surviving colonies of cells. Dishes with well-isolated colonies were used. Cells from individual colonies were isolated and tested. SK-N-MC cells were used because they give efficient coupling for inhibition of adenylate cyclase. The clones that gave the most robust inhibition of adenylate cyclase in response to histamine were used for further study.
{^3H}-N-methylhistamine Binding
Cell pellets from histamine H3 receptor-expressing SK-N-MC cells were homogenized in 20 mM Tris HCl/0.5 mM EDTA. Supernatants from an 800 g spin were collected, recentrifuged at 30,000 g for 30 min. Pellets were re-homogenized in 50 mM Tris/5 mM EDTA (pH 7.4). Membranes were incubated with 0.8 nM {^3H}-N-methylhistamine plus/minus test compounds for 45 min at 25° C. and harvested by rapid filtration over GF/C glass fiber filters (pretreated with 0.3% polyethylenimine) followed by four washes with ice-cold buffer. Filters were dried, added to 4 mL scintillation cocktail and then counted on a liquid scintillation counter. Non-specific binding was defined with 10 μM histamine. The pKi values were calculated based on a Kd of 800 pM and a ligand concentration ({L}) of 800 pM according to the formula: Ki=(IC50)/(1+({L}/(Kd))

T1 sequence (Q9Y5N1 whole entry): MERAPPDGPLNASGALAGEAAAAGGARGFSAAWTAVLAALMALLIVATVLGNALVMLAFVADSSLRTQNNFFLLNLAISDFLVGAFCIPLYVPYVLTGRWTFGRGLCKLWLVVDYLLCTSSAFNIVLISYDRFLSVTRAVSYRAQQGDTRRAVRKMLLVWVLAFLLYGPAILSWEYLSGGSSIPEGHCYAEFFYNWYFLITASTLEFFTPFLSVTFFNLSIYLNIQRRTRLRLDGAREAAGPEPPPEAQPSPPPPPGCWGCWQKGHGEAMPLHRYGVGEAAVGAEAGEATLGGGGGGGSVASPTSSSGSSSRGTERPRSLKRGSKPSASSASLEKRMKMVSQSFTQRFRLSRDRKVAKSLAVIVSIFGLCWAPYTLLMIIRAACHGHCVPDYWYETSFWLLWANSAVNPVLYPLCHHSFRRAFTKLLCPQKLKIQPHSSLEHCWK

SMILES | Ki
c1cc(N2CCC(CN3CCSCC3)CC2)ccc1CN1CCCC1 [Example 29, 4-{1-(4-Pyrrolidin-1-ylmethyl-phenyl)-piperidin-4-ylmethyl}-thiomorpholine] | 2 nM
c1cc(N2CCC(CNC3CCCCC3)CC2)ccc1CN1CCCC1 [Example 23, Cyclohexyl-{1-(4-pyrrolidin-1-ylmethyl-phenyl)-piperidin-4-ylmethyl}-amine] | 0.9 nM
c1cc(CN2CCCCC2)cc(N2CCC(CN3CCCC3)CC2)c1 [Example 35, 1-{3-(4-pyrrolidin-1-ylmethyl-piperidin-1-yl)-benzyl}-piperidine] | 10 nM
c1cc(N2CCC(CN3CCCC3)CC2)ccc1CN1CCCCCCCCCCCC1 [Example 36, 1-{4-(4-Pyrrolidin-1-ylmethyl-piperidin-1-yl)-benzyl}-azacyclotridecane] | 6 nM
c1cc(CN2CCSCC2)cc(N2CCC(CN3CCCC3)CC2)c1 [Example 32, 4-{3-(4-Pyrrolidin-1-ylmethyl-piperidin-1-yl)-benzyl}-thiomorpholine] | 9 nM
c1cc(N2CCC(NC3CCCCC3)CC2)ccc1CN1CCOCC1 [Example 46, Cyclohexyl-{1-(4-morpholin-4-ylmethyl-phenyl)-piperidin-4-yl}-amine] | 28 nM
c1cc(N2CCC(CN3CCCCCCCCCCCC3)CC2)ccc1CN1CCCC1 [Example 24, 1-{1-(4-Pyrrolidin-1-ylmethyl-phenyl)-piperidin-4-ylmethyl}-azacyclotridecane] | 23 nM
c1cc(N2CCC(N3CCCCC3)CC2)ccc1CN1CCOCC1 [Example 52, 1′-(4-Morpholin-4-ylmethyl-phenyl)-{1,4′}bipiperidinyl] | 5.5 nM
c1cc(N2CCC(CN3CCCC3)CC2)ccc1CN1CCCCC1 [Example 45, 1-{4-(4-Pyrrolidin-1-ylmethyl-piperidin-1-yl)-benzyl}-piperidine] | 2 nM

Next, values leading:

Ki | SMILES
160 nM | FC(F)(F)c1ccc(C2CCN(Cc3ccc(N4CCC(CN5CCCC5)CC4)cc3C(F)(F)F)CC2)cc1 [Example 77, 1-(1-{3-Trifluoromethyl-4-[4-(4-trifluoromethyl-phenyl)-piperidin-1-ylmethyl]-phenyl}-piperidin-4-ylmethyl)-pyrrolidine]
5 nM | O=[N+]([O-])c1cc(CN2CCC(O)CC2)ccc1N1CCC(CN2CCCC2)CC1 [Example 71, 1-[3-Nitro-4-(4-pyrrolidin-1-ylmethyl-piperidin-1-yl)-benzyl]-piperidin-4-ol]
0.6 nM | c1cc(N2CCC(CN3CCCC3)CC2)ccc1CN1CCCC1 [Example 58, 4-Pyrrolidin-1-ylmethyl-1-(4-pyrrolidin-1-ylmethyl-phenyl)-piperidine]
14 nM | FC(F)(F)c1cc(CN2CCCCC2)ccc1N1CCC(CN2CCCC2)CC1 [Example 68, 1-[4-(4-Pyrrolidin-1-ylmethyl-piperidin-1-yl)-3-trifluoromethyl-benzyl]-piperidine]
16 nM | Cc1cc(CN2CCN(C(C)C)CC2)ccc1N1CCC(CN2CCCC2)CC1 [Example 73, 1-Isopropyl-4-[3-methyl-4-(4-pyrrolidin-1-ylmethyl-piperidin-1-yl)-benzyl]-piperazine]
2 nM | O=[N+]([O-])c1cc(CN2CCCCC2)ccc1N1CCC(CN2CCCC2)CC1 [Example 69]
2.7 nM | c1cc(N2CCC(N3CCCCC3)CC2)ccc1CN1CCCCC1 [Example 53, 1′-(4-Piperidin-1-ylmethyl-phenyl)-{1,4′}bipiperidinyl]
